From patent US6653286B1, “Gonadotropin releasing hormone antagonist” (Akzo Nobel NV, priority 1997, dated 2003)
Square brackets hold non-standard residues; d marks the D form. Peptide text beside a SMILES is read from it. d(hArg(Et2)) = CCN=C(NCC)NCCCC[C@@H](N)C(=O)O; hArg(Et2) = CCN=C(NCC)NCCCC[C@H](N)C(=O)O; dPhe(4-Cl) = N[C@H](Cc1ccc(Cl)cc1)C(=O)O; d2Nal = N[C@H](Cc1ccc2ccccc2c1)C(=O)O; d3Pal = N[C@H](Cc1cccnc1)C(=O)O

Experiments:
pituitary-gonadal axis = conditions: cited from earlier work
premature LH surges = experiment: phase II double-blind dose-finding study of ganirelix in women undergoing controlled ovarian hyperstimulation with recFSH; type: in vivo, human
Experimental: In order to establish the minimum effective dose of ganirelix to prevent premature LH surges in women undergoing COH with recombinant FSH, a double-blind dose-finding study was performed with 6 test doses ranging between 2 mg and 0.0625 mg ganirelix.
This study was a phase II, multi-centre, double-blind, randomized, dose-finding study to assess the efficacy of the GnRH-antagonist ganirelix to prevent premature LH surges in women undergoing controlled ovarian hyperstimulation with recFSH. The dosages of ganirelix are administered by one daily SC administration.
RecFSH treatment started on day 2 of the menstrual cycle (treatment day -5) by a once daily SC injection. From treatment day -5 through day -1 the dose of recFSH was fixed at 150 IU daily. After 5 days of recFSH treatment (day 7 of the menstrual cycle), ganirelix treatment was started by daily SC administration. Treatment continued until and including the last day of recFSH administration. During ganirelix treatment, the dose of recFSH was adjusted depending on the individual ovarian response as assessed by daily ultra sonographic scan (USS). As soon as at least 3 folicles ≧17 mm measured by USS were observed, hCG was administered for ovulation induction. About 30-36 hours thereafter oocyte pick-up was performed followed by in vitro fertilization (IVF) with or without intracytoplasmic sperm injection (ICSI). No more than 3 embryos were replaced.
If during ganirelix treatment a premature LH rise occurred e.g. at least one value of serum LH ≧15 IU/L according to the local LH immunoassay the investigator canceled the cycle or tried to rescue the cycle by giving hCG prematurely. In addition, the investigator notified the sponsor about the occurrence of the LH rise and the central laboratory was requested to confirm the LH rise was ≧10 IU/L according to the central LH immunoassay. Subsequently, all data of such subject with a premature LH rise were forwarded to an Independent Advisory Committee which was installed in order to advice on stopping a treatment arm in case of LH rises during ganirelix treatment.
During the study, some investigators informed the sponsor on one or more cases of extremely low serum LH and failing estradiol concentrations as well as follicle growth arrest after starting ganirelix treatment. For this reason the External Independent Advisory Committee was requested to review all clinical data available in order to evaluate whether these observations were dose related and whether, in their opinion, there was reason to stop one or more treatment arms.
In addition, the Independent Advisory Committee reviewed all rises of LH (≧15 IU/L according to the local LH immunoassay and ≧10 IU/L according to the central LH immunoassay) during ganirelix treatment. Based on their evaluation the External Committee advised the sponsor to stop the highest (2 mg) and lowest (0.0625 mg) treatment dose of ganirelix. The study was completed for the other dosage groups.
In total 333 subjects started recFSH treatment and 332 subjects started ganirelix treatment. Because of major protocol violation 3 subjects were excluded from the analysis. The final number of patients per dosing group are included in Table 1.

Serum ganirelix concentration versus dose (premature LH surges; 0.0625 mg to 2 mg daily SC): increased in a dose-proportional manner
miscarriage rate (premature LH surges; 2 mg dose group): 13%
Compound: CCN=C(NCC)NCCCC[C@H](NC(=O)[C@H](CC(C)C)NC(=O)[C@@H](CCCCNC(=NCC)NCC)NC(=O)[C@H](Cc1ccc(O)cc1)NC(=O)[C@H](CO)NC(=O)[C@@H](Cc1cccnc1)NC(=O)[C@@H](Cc1ccc(Cl)cc1)NC(=O)[C@@H](Cc1ccc2ccccc2c1)NC(C)=O)C(=O)N1CCC[C@H]1C(=O)N[C@H](C)C(N)=O [ganirelix, N-Acetyl-3-(2-naphtyl)-D-alanyl-4-chloro-D-phenylalanyl-3-(3-pyridyl)-D-alanyl-L-seryl-L-tyrosyl-N^ω,N^ω-diethyl-D-homoarginyl-L-leucin-N^ω,N^ω-diethyl-Lhomoarginyl-L-propyl-D-alanylamide acetate] (Ac-[d2Nal][dPhe(4-Cl)][d3Pal]SY[d(hArg(Et2))]L[hArg(Et2)]P[dA]-NH2)
suppression of the pituitary-gonadal axis (pituitary-gonadal axis; 1 mg or 2 mg daily SC for 8 consecutive days, reproductive age women): rapid, profound, reversible suppression
maximal mean LH suppression (pituitary-gonadal axis; 8 h after the first injection, 1 mg or 2 mg daily SC): approximately 60%
Median serum E2 (estradiol) at the day of hCG (= last day of ganirelix) (premature LH surges; 0.0625 mg daily SC): 1475 pg/mL
Median serum LH at the day of hCG (= last day of ganirelix) (premature LH surges; 0.0625 mg daily SC): 3.56 IU/L
Incidence of LH rises (premature LH surges; 0.0625 mg daily SC, N = 31, number of subjects (%)): 5 (16%)
Median serum E2 (estradiol) at the day of hCG (= last day of ganirelix) (premature LH surges; 0.125 mg daily SC): 1130 pg/mL
Median serum LH at the day of hCG (= last day of ganirelix) (premature LH surges; 0.125 mg daily SC): 2.46 IU/L
Incidence of LH rises (premature LH surges; 0.125 mg daily SC, N = 65, number of subjects (%)): 6 (9.2%)
Median serum E2 (estradiol) at the day of hCG (= last day of ganirelix) (premature LH surges; 0.25 mg daily SC): 1160 pg/mL
Median serum LH at the day of hCG (= last day of ganirelix) (premature LH surges; 0.25 mg daily SC): 1.73 IU/L
Incidence of LH rises (premature LH surges; 0.25 mg daily SC, N = 69, number of subjects (%)): 1 (1.4%)
Median serum E2 (estradiol) at the day of hCG (= last day of ganirelix) (premature LH surges; 0.5 mg daily SC): 823 pg/mL
Median serum LH at the day of hCG (= last day of ganirelix) (premature LH surges; 0.5 mg daily SC): 1.02 IU/L
Incidence of LH rises (premature LH surges; 0.5 mg daily SC, N = 69, number of subjects): 0
Median serum E2 (estradiol) at the day of hCG (= last day of ganirelix) (premature LH surges; 1 mg daily SC): 703 pg/mL
Median serum LH at the day of hCG (= last day of ganirelix) (premature LH surges; 1 mg daily SC): 0.57 IU/L
Incidence of LH rises (premature LH surges; 1 mg daily SC, N = 65, number of subjects): 0
Median serum E2 (estradiol) at the day of hCG (= last day of ganirelix) (premature LH surges; 2 mg daily SC): 430 pg/mL
Median serum LH at the day of hCG (= last day of ganirelix) (premature LH surges; 2 mg daily SC): 0.34 IU/L
Incidence of LH rises (premature LH surges; 2 mg daily SC, N = 30, number of subjects): 0
vital pregnancy rate per attempt (premature LH surges; 2 mg dose group, per attempt (those who started hormonal treatment)): 3.8%
vital pregnancy rate per transfer (premature LH surges; 2 mg dose group, per transfer (those who had embryo transfer)): 4.3%
